Results reported in patent US9512168B2, “Compound, composition and method for treating and/or ameoliorating kidney disease” (Trineo Biotechnology Co. LTD., priority 2014, dated 2016).

Key:
MDCK cells = assay: Cisplatin induced in vitro kidney cell apoptosis (mitochondria membrane potential, DiOC6 staining); format: cell-based, canine; conditions: FIG. 1A
Procedure: Madin-Darby canine kidney (MDCK) cells (1.5×10^5 cells/mL) were cultured and maintained in Dulbecco's modified Eagle medium (DMEM) supplemented with 10% fetal bovine serum (FBS), 100 units/mL penicillin, […] streptomycin, 2 mM L-glutamine, non-essential amino acids and sodium pyruvate, and maintained in 5% CO2 at 37° C. until reached 80% confluence, then were subject to cell passages.
MDCK cells were cultured in according to procedures described in the “Materials and Methods” section. To start the experiment, MDCK cells were first incubated with 50 μM cisplatin for 4 hrs, then various concentrations of the compound of formula (I) ([…] or 100 μg/mL) or the YKII-10 composition of example 1.2 (25 to 100 μg/mL) were given to cisplatin-treated cells and further incubated for another 24 hrs. Mitochondria membrane potentials were then measured by staining the live cells with fluorescent dyes (e.g., 50 nM DiOC6), in which 50 nM DiOC6 were added to cells and incubated at 37° C. for 30 min. The cells were then washed twice with phosphate buffer solution before subjecting to microscopy analysis using the inverted fluorescent microscope. […] Results are illustrated in FIGS. 1A and 1B.

Blb/c mice = assay: Lipopolysaccharide (LPS) induced in vivo kidney inflammation, urine protein; conditions: oral 100 mg/Kg; LPS 2.5 mg/Kg/day i.p. for 5 days; urine on day 5 and day 10; FIG. 3
Procedure: Blb/c mice were kept in pathogen-free environment under 12:12 light-dark cycle with food (laboratory rodent diet 5001 purchased from PMI Nutrition International Inc. MO, USA) and water (i.e., distilled water) provided ad libitum, ambient temperature and relative humidity were respectively set at 22±3° C. and 50±20%. All procedures involving animal studies of the present disclose e comply with the “Guideline for the Care and Use of Laboratory Animals” issued by The Chinese-Taipei Society of Laboratory Animal Sciences.
In this example, to evaluate the therapeutic or prophylactic function of the composition of example 1.2, animals were first injected intraperitoneally with lipopolysaccharide (LPS) to induce in vivo kidney inflammation before being subject to the treatment of the composition of example 1.2.
Blb/c mice (6 weeks old) were randomly assigned to two groups, and injected intraperitoneally with lipopolysaccharide (LPS, 2.5 mg/Kg/day) for 5 consecutive days so as to induce kidney inflammation. […] Urine samples were respectively collected on the fifth and the tenth day after the experiment started, and analyzed for the level of urine protein therein. […]

SMILES: C[C@H](CCC(=O)O)[C@H]1C[C@H](O)[C@@]2(C)C3=C(C(=O)C[C@]12C)[C@@]1(C)CCC(=O)C(C)(C)[C@@H]1C[C@@H]3O [compound of formula (I)]
- reversal of cisplatin-induced apoptosis of MDCK cell (MDCK cells; 50 μg/mL or 100 μg/mL for 24 hrs after 50 μM cisplatin for 4 hrs): capable of reversing
- recovery on the membrane potential (MDCK cells; 100 μg/mL for 24 hrs after 50 μM cisplatin for 4 hrs, MDCK cells): about 80%
- urine protein level (Blb/c mice): effective in reducing
